According to ChEMBL document CHEMBL1201862, “PubChem BioAssay data set” (2004):
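Following 48 hours of exposure in 96-well plates, responses at five concentrations were used to interpolate endpoints linearly. Abbreviation: GI50, concentration required for 50% inhibition of growth.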 Calls of active or inactive are those of the source. Rule as the data show it: active = GI50 up to about 1.1 µM and inactive = higher.

Legend:
Assay in all cases: growth of human tumour cells (NCI), 48 h
Malme-3M = system: Malme-3M
NCI-H522 = system: NCI-H522
DMS-114 = system: DMS-114
KM12 = system: KM12
SN12C = system: SN12C
786-0 = system: 786-0
M19-MEL = system: M19-MEL
A498 = system: A498
UO-31 = system: UO-31
UACC-257 = system: UACC-257
HOP-18 = system: HOP-18
HCT-116 = system: HCT-116
M14 = system: M14
DU-145 = system: DU-145
Hs-578T = system: Hs-578T
MDA-N = system: MDA-N
PC-3 = system: PC-3
T47D = system: T47D
MDA-MB-435 = system: MDA-MB-435
XF498 = system: XF498

Compound	GI50 (Malme-3M)	GI50 (NCI-H522)	GI50 (DMS-114)	GI50 (KM12)	GI50 (SN12C)	GI50 (786-0)	GI50 (M19-MEL)	GI50 (A498)	GI50 (UO-31)	GI50 (UACC-257)	GI50 (HOP-18)	GI50 (HCT-116)	GI50 (M14)	GI50 (DU-145)	GI50 (Hs-578T)	GI50 (MDA-N)	GI50 (PC-3)	GI50 (T47D)	GI50 (MDA-MB-435)	GI50 (XF498)
COC(=O)/C=c1\s/c(=C\C(=O)OC)c2ccccc12	> 100 µM (inactive)	> 100 µM (inactive)	> 100 µM (inactive)	11.7 µM (inactive)	> 100 µM (inactive)	> 100 µM (inactive)	> 100 µM (inactive)	> 100 µM (inactive)	89.1 µM (inactive)	> 100 µM (inactive)	> 100 µM (inactive)	> 100 µM (inactive)	> 100 µM (inactive)	–	–	–	–	–	–	–
CC1OC(n2cc(F)c(=O)[nH]c2=O)CCC1O (configuration not stated)	99.8 µM (inactive)	> 95.1 µM (inactive)	–	> 96.2 µM (inactive)	> 100 µM (inactive)	> 100 µM (inactive)	> 100 µM (inactive)	> 66.5 µM (inactive)	85.3 µM (inactive)	> 100 µM (inactive)	67.5 µM (inactive)	78 µM (inactive)	> 91.4 µM (inactive)	> 77.6 µM (inactive)	99.1 µM (inactive)	91.2 µM (inactive)	> 100 µM (inactive)	> 100 µM (inactive)	> 100 µM (inactive)	–
O=C(CC/C(C/C(=N/O)c1ccc(F)cc1)=N/O)N(Cc1ccccc1)Cc1ccccc1	> 100 µM (inactive)	> 100 µM (inactive)	> 100 µM (inactive)	> 100 µM (inactive)	> 100 µM (inactive)	> 100 µM (inactive)	> 100 µM (inactive)	> 100 µM (inactive)	> 100 µM (inactive)	> 100 µM (inactive)	> 100 µM (inactive)	> 100 µM (inactive)	> 100 µM (inactive)	–	–	–	–	–	–	–
O=C(Nc1nc2ncn(CCO)c2c(=O)[nH]1)c1ccccc1	> 100 µM (inactive)	> 100 µM (inactive)	> 100 µM (inactive)	> 100 µM (inactive)	> 100 µM (inactive)	> 100 µM (inactive)	> 100 µM (inactive)	> 100 µM (inactive)	> 100 µM (inactive)	> 100 µM (inactive)	> 100 µM (inactive)	> 100 µM (inactive)	> 100 µM (inactive)	–	–	–	–	–	–	–
CC12CCC3C(CCC4=CC(O)CCC43C=O)C1(O)CCC2c1ccc(=O)oc1 (configuration not stated)	–	0.0015 µM (active)	0.0014 µM (active)	0.0129 µM (active)	0.00438 µM (active)	–	0.0128 µM (active)	0.00802 µM (active)	0.027 µM (active)	0.0139 µM (active)	0.0107 µM (active)	0.05 µM (active)	–	–	–	–	–	–	–	–
O=C(NCCNCCO)N/N=C/c1cccc([N+](=O)[O-])c1	> 100 µM (inactive)	> 100 µM (inactive)	> 100 µM (inactive)	> 100 µM (inactive)	> 100 µM (inactive)	> 100 µM (inactive)	> 100 µM (inactive)	> 100 µM (inactive)	> 100 µM (inactive)	> 100 µM (inactive)	> 100 µM (inactive)	> 100 µM (inactive)	> 100 µM (inactive)	–	–	–	–	–	–	–
CC1CCC(=O)C(C(O)CC2CC(=O)N(c3ccccc3)C(=O)C2)C1 (configuration not stated)	> 100 µM (inactive)	> 100 µM (inactive)	> 100 µM (inactive)	> 100 µM (inactive)	> 100 µM (inactive)	> 100 µM (inactive)	> 100 µM (inactive)	> 100 µM (inactive)	> 100 µM (inactive)	> 100 µM (inactive)	> 100 µM (inactive)	> 100 µM (inactive)	> 100 µM (inactive)	–	–	–	–	–	–	–
CC/C=C/C[C@H](O[Si](C)(C)C(C)(C)C)[C@H]1C[C@H]2O[C@H]([C@@H](O)C#C[Si](C)(C)C)C[C@H]2O1	11.9 µM (inactive)	3.64 µM (inactive)	–	17.9 µM (inactive)	5.36 µM (inactive)	14.7 µM (inactive)	–	17.9 µM (inactive)	14.2 µM (inactive)	9.75 µM (inactive)	–	12.1 µM (inactive)	12.1 µM (inactive)	14.7 µM (inactive)	15.3 µM (inactive)	12.2 µM (inactive)	12.9 µM (inactive)	7.55 µM (inactive)	12.3 µM (inactive)	–
Cc1cc(N(CCC#N)CCC#N)ccc1/N=N/c1cc(Cl)ccc1Cl	4.98 µM (inactive)	1.49 µM (inactive)	6.59 µM (inactive)	15.2 µM (inactive)	13.4 µM (inactive)	14.6 µM (inactive)	13.7 µM (inactive)	20.1 µM (inactive)	16.7 µM (inactive)	10.7 µM (inactive)	10.2 µM (inactive)	–	3.46 µM (inactive)	–	–	–	–	–	–	–
C[C@]12CCC(=O)C=C1CC[C@@H]1C2CC[C@]2(C)NC(=O)C(C#N)CC12 (some centres not stated)	> 100 µM (inactive)	–	> 100 µM (inactive)	> 10 µM (inactive)	–	> 100 µM (inactive)	> 100 µM (inactive)	> 100 µM (inactive)	> 100 µM (inactive)	> 100 µM (inactive)	–	> 100 µM (inactive)	> 100 µM (inactive)	–	–	–	–	–	–	> 100 µM (inactive)
COc1cc(/C=C2/C(=O)NC(Cc3cc(OC)c(OC)c(C)c3OC)C(=O)N2Cc2ccccc2)c(OC)c(C)c1OC (configuration not stated)	30.8 µM (inactive)	18.2 µM (inactive)	38.2 µM (inactive)	55.5 µM (inactive)	54.3 µM (inactive)	79.3 µM (inactive)	47.4 µM (inactive)	44.4 µM (inactive)	26 µM (inactive)	61.5 µM (inactive)	18.3 µM (inactive)	> 100 µM (inactive)	33 µM (inactive)	–	–	–	–	–	–	–
Cc1nc2ccccc2cc1C[N+]12CN3CN(CN(C3)C1)C2	17.3 µM (inactive)	18.9 µM (inactive)	–	20.9 µM (inactive)	18 µM (inactive)	11.5 µM (inactive)	–	22.8 µM (inactive)	23.6 µM (inactive)	18.4 µM (inactive)	–	5.21 µM (inactive)	18.5 µM (inactive)	26.2 µM (inactive)	35.6 µM (inactive)	21.8 µM (inactive)	10.8 µM (inactive)	18.7 µM (inactive)	22.2 µM (inactive)	–
C=C(C)COc1ccc2c(c1)CCC1C2CCC2(C)C(=O)/C(=N/O)CC12 (configuration not stated)	13.8 µM (inactive)	3.58 µM (inactive)	–	2.19 µM (inactive)	3.13 µM (inactive)	2.86 µM (inactive)	–	11.1 µM (inactive)	3.9 µM (inactive)	11.3 µM (inactive)	–	1.52 µM (inactive)	4.13 µM (inactive)	2.12 µM (inactive)	3.67 µM (inactive)	3.47 µM (inactive)	2.6 µM (inactive)	2.2 µM (inactive)	2.27 µM (inactive)	–
COc1ccc2cc(CN3CCC(C4CCN(Cc5ccc6cc(OC)ccc6c5)CC4)CC3)ccc2c1	2.17 µM (inactive)	2.3 µM (inactive)	–	2.43 µM (inactive)	8.95 µM (inactive)	2.06 µM (inactive)	–	8.43 µM (inactive)	3.14 µM (inactive)	2.09 µM (inactive)	–	2.39 µM (inactive)	2.33 µM (inactive)	6.21 µM (inactive)	4.61 µM (inactive)	2.04 µM (inactive)	15.8 µM (inactive)	1.93 µM (inactive)	1.69 µM (inactive)	–
CCOC(=O)/C=C1\Oc2ccccc2C1(C)O (configuration not stated)	> 100 µM (inactive)	> 100 µM (inactive)	> 100 µM (inactive)	> 100 µM (inactive)	> 100 µM (inactive)	> 100 µM (inactive)	> 100 µM (inactive)	> 100 µM (inactive)	> 100 µM (inactive)	> 100 µM (inactive)	> 100 µM (inactive)	> 100 µM (inactive)	> 100 µM (inactive)	–	–	–	–	–	–	–
C=C(Cl)C(Br)(CCl)CCC(Br)C(C)(C)Cl (configuration not stated)	2.83 µM (inactive)	3.42 µM (inactive)	–	6.87 µM (inactive)	2.84 µM (inactive)	1.95 µM (inactive)	–	17.7 µM (inactive)	5.61 µM (inactive)	2.67 µM (inactive)	–	1.72 µM (inactive)	2.91 µM (inactive)	13.7 µM (inactive)	3.66 µM (inactive)	3.49 µM (inactive)	6.12 µM (inactive)	1.15 µM (inactive)	3.57 µM (inactive)	–
Oc1ccc(-c2nc3ccc4ccccc4c3c3c2CCCC3)c(O)c1	19.4 µM (inactive)	12.1 µM (inactive)	–	13.8 µM (inactive)	17.7 µM (inactive)	11.7 µM (inactive)	–	51.1 µM (inactive)	29.9 µM (inactive)	10.5 µM (inactive)	–	10.7 µM (inactive)	15.2 µM (inactive)	35.3 µM (inactive)	24.2 µM (inactive)	17.2 µM (inactive)	21.6 µM (inactive)	7.5 µM (inactive)	16.9 µM (inactive)	–
CCn1c(SCC(=O)N/N=C/c2ccccc2)nc2ccccc2c1=O	12.5 µM (inactive)	3.7 µM (inactive)	–	3.64 µM (inactive)	13.1 µM (inactive)	7.66 µM (inactive)	–	8.22 µM (inactive)	29.9 µM (inactive)	21.8 µM (inactive)	–	5.42 µM (inactive)	7.16 µM (inactive)	48.2 µM (inactive)	8.41 µM (inactive)	2.54 µM (inactive)	15 µM (inactive)	21.7 µM (inactive)	2.11 µM (inactive)	–
CCCCCC[N+](C)(C)Cc1ccc(C[N+](C)(C)CCCCCC)cc1	7.76 µM (inactive)	1.74 µM (inactive)	1.75 µM (inactive)	2.25 µM (inactive)	3.49 µM (inactive)	3.52 µM (inactive)	1.94 µM (inactive)	11.2 µM (inactive)	8.43 µM (inactive)	10.8 µM (inactive)	4.69 µM (inactive)	3.71 µM (inactive)	3.48 µM (inactive)	–	–	–	–	–	–	–
